According to PMC8806947, “β-galactosidase GALA from Bacillus circulans with high transgalactosylation activity” (Bioengineered, 2021):

How the values were obtained:
[1] = target: T1, GALA (β-galactosidase from Bacillus circulans) (Niallia circulans, UniProt E5RWQ2); experiment: HPLC and TLC of hydrolysis and transgalactosylation products; assay type: biochemical; conditions: 200-500 g/L lactose, 0.1 M phosphate-citrate pH 5-7, 30-50 °C; also galactosyl acceptor
T1 construct: gene bga; codon-optimised synthetic gene (galAm) with His-tag, secreted from Pichia pastoris GS115 (pPICZαA); HisTrap and gel filtration; predicted 1703 residues, 190 kDa; glycosylated

[2] = target: T1, GALA (β-galactosidase from Bacillus circulans); experiment: o-nitrophenol release, absorbance at […] nm; assay type: biochemical; conditions: 0.25% oNPG, 20 mM phosphate-citrate pH 6.0, 45 °C, 15 min

T1 sequence (E5RWQ2 24-1737): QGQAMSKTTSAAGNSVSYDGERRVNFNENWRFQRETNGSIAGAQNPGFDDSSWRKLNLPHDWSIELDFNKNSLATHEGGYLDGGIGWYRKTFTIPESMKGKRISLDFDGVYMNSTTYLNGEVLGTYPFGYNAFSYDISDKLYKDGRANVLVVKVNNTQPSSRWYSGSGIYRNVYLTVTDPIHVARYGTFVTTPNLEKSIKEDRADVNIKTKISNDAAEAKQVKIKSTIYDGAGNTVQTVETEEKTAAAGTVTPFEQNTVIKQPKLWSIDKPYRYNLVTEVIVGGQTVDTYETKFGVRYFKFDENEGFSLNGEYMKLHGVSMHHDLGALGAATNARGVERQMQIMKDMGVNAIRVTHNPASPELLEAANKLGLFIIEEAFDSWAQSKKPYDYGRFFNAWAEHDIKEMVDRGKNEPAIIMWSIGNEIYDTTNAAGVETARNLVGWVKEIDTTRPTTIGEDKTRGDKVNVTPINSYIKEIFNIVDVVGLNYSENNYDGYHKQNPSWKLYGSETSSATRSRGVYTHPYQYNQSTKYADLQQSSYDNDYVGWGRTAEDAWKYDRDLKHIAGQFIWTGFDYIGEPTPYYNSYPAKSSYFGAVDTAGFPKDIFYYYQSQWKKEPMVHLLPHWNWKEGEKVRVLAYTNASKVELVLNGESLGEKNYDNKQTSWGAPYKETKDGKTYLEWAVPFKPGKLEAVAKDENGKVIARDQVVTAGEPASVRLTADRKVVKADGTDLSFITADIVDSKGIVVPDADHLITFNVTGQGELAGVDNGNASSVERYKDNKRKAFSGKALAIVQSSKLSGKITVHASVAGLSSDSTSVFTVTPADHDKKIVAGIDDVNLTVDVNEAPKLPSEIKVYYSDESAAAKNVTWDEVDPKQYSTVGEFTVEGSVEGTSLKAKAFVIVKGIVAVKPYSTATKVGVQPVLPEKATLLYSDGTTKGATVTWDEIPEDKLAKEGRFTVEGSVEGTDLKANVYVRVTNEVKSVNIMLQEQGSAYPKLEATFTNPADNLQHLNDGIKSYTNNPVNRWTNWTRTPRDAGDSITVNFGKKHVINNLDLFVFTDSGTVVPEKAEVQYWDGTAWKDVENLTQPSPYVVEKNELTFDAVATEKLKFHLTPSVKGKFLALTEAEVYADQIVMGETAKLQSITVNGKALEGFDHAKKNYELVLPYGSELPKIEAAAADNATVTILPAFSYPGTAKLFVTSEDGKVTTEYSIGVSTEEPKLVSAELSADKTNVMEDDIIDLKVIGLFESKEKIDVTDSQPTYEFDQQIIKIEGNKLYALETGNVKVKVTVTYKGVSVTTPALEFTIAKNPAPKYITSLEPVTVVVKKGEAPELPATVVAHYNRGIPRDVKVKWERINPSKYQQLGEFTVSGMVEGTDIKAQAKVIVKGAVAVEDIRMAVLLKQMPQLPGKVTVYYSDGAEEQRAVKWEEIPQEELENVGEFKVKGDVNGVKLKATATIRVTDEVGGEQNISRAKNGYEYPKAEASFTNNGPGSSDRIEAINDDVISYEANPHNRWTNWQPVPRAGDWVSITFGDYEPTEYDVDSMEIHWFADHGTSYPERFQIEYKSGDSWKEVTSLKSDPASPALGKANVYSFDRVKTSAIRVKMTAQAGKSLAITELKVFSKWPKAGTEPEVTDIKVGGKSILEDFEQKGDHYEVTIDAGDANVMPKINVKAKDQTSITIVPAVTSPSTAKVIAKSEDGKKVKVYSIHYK

SMILES | HPLC and TLC of hydrolysis and transgalactosylation products [1] | o-nitrophenol release, absorbance at 420 nm [2]
OC[C@H]1O[C@@H](O[C@H]2[C@H](O)[C@@H](O)C(O)O[C@@H]2CO)[C@H](O)[C@@H](O)[C@H]1O (some centres unmarked) [lactose] | enzymatic transgalactosylation activity of the β-galactosidase, using lactose as the substrate | –
O=[N+]([O-])c1ccccc1O[C@@H]1O[C@H](CO)[C@H](O)[C@H](O)[C@H]1O [O-nitrophenyl-β-D-galactopyranoside] | – | The experiments were carried out three times using ONPG as the substrate
